Calls of active or inactive are those of the source. The calls are words filed in the database; no cut-off is given here.
Key:
MDA-MB-231 [1] = test: Induction of cell cycle arrest in human MDA-MB-231 cells assessed as accumulation of cells at G1 phase at 10 uM incubated for 24 hrs by RNase/PI staining based flow cytometric analysis; assay type: functional
MDA-MB-231 [2] = test: cells; conditions: Homo sapiens, MDA-MB-231, 48 h
Description: Antiproliferative activity against human MDA-MB-231 cells assessed as inhibition of cell growth incubated for 48 hrs by CCK-8 assay

[3] = Clearance in Sprague-Dawley rat at 10 mg/kg,iv administration measured upto 24 hrs by LC-MS/MS analysis; assay type: ADME, organism-based; conditions: in vivo
HCT-116 [4] = test: Induction of cell cycle arrest in human HCT-116 cells assessed as accumulation of cells at G2 phase at 10 uM incubated for 24 hrs by RNase/PI staining based flow cytometric analysis; assay type: functional
[5] = target: CDK2/Cyclin A2 (Homo sapiens) (UniProt P24941+P20248); test: Inhibition of CDK2/CyclinA2 (unknown origin) at 100 nM preincubated for 15 mins followed by substrate and ATP addition incubated for 10 mins by ADP-glo luminescent assay relative to control; assay type: protein-complex assay; conditions: time 25.0 min
MDA-MB-231 [6] = test: Antitumor activity against human MDA-MB-231 cells xenografted in BALB/c mouse assessed as tumor growth inhibition at 40 mg/kg,ip administrated for 21 consecutive days; assay type: functional; conditions: read-out: TGI
[7] = Half life in Sprague-Dawley rat at 10 mg/kg,iv administration measured upto 24 hrs by LC-MS/MS analysis; assay type: ADME, organism-based; conditions: in vivo
HCT-116 [8] = test: cells; conditions: Homo sapiens, HCT-116, 48 h
Description: Antiproliferative activity against human HCT-116 cells assessed as inhibition of cell growth incubated for 48 hrs by CCK-8 assay

MDA-MB-231 [9] = test: Induction of cell cycle arrest in human MDA-MB-231 cells assessed as accumulation of cells at G2 phase at 10 uM incubated for 24 hrs by RNase/PI staining based flow cytometric analysis; assay type: functional
[10] = Tmax in Sprague-Dawley rat at 10 mg/kg,iv administration measured upto 24 hrs by LC-MS/MS analysis; assay type: ADME, organism-based; conditions: in vivo
[11] = AUC (0 to t) in Sprague-Dawley rat at 10 mg/kg,iv administration measured upto 24 hrs by LC-MS/MS analysis; assay type: ADME, organism-based; conditions: in vivo
[12] = Intrinsic clearance in human liver microsomes in presence of NADPH incubated for 5 to 45 mins by LC/MS analysis; assay type: ADME, Microsome; conditions: time 5-45 min, read-out: CLH
[13] = Half life in human liver microsomes in presence of NADPH incubated for 5 to 45 mins by LC/MS analysis; assay type: ADME, Microsome; conditions: time 5-45 min
HepG2 = test: cells; conditions: Homo sapiens, HepG2, 48 h
Description: Antiproliferative activity against human HepG2 cells assessed as inhibition of cell growth incubated for 48 hrs by CCK-8 assay

[14] = Cmax in Sprague-Dawley rat at 10 mg/kg,iv administration measured upto 24 hrs by LC-MS/MS analysis; assay type: ADME, organism-based; conditions: in vivo
A549 = test: cells; conditions: Homo sapiens, A549, 48 h
Description: Antiproliferative activity against human A549 cells assessed as inhibition of cell growth incubated for 48 hrs by CCK-8 assay

[15] = MRT (0 to t) in Sprague-Dawley rat at 10 mg/kg,iv administration measured upto 24 hrs by LC-MS/MS analysis; assay type: ADME, organism-based; conditions: in vivo
[16] = target: CDK6/cyclin D3 (Homo sapiens) (UniProt P30281+Q00534); test: Inhibition of CDK6/CyclinD3 (unknown origin) at 100 nM preincubated for 15 mins followed by substrate and ATP addition incubated for 10 mins by ADP-glo luminescent assay relative to control; assay type: protein-complex assay; conditions: time 25.0 min
HCT-116 [17] = test: Induction of cell cycle arrest in human HCT-116 cells assessed as accumulation of cells at G1 phase at 10 uM incubated for 24 hrs by RNase/PI staining based flow cytometric analysis; assay type: functional

O=C1Nc2ccccc2/C1=C1/Nc2ccccc2/C1=N\O
Activity (MDA-MB-231 [1]): Active | IC50 (MDA-MB-231 [2]): 5.16 µM | clearance [3]: 12.8 mL/min/kg | Activity (HCT-116 [4]): Active | inhibition [5]: 40.3% | inhibition in vivo at 40 mg/kg (MDA-MB-231 [6]): 59.4% | half-life [7]: 3.8 h | IC50 (HCT-116 [8]): 4.22 µM | Activity (MDA-MB-231 [9]): Active | Tmax [10]: 0.8 h | AUC(0-t) at 24 h [11]: 12900 ng·h/mL | CLint scaled [12]: 55.2 mL/min/kg | half-life [13]: 0.483 h | IC50 (HepG2): 5.66 µM | Cmax [14]: 8730 ng/mL | IC50 (A549): 4.04 µM | MRT last at 24 h [15]: 2.7 h | inhibition [16]: 51.1% | Activity (HCT-116 [17]): Active
